Columns and labels:
[1] = molecular target: T1, human A2a adenosine receptor (Homo sapiens, UniProt P29274); experiment: Ligand Binding Assay for Adenosine A2a Receptor (A2A-B); settings: HEK293 cell plasma membrane, radioligand [3H]CGS21680
T1 construct: purchased PerkinElmer RB-HA2a; host or cells: HEK293 plasma membrane
Method: Ligand binding assay of adenosine A2a receptor was performed using plasma membrane of HEK293 cells containing human A2a adenosine receptor (PerkinElmer, RB-HA2a) and radioligand [^3H]CGS21680 (PerkinElmer, NET1021). Assay was set up in 96-well polypropylene plate in total volume of 200 μL by sequentially adding 20 μL 1:20 diluted membrane, 130 μL assay buffer (50 mM Tris·HCl, pH7.4 10 mM MgCl2, 1 mM EDTA) containing [^3H] CGS21680, 50 μL diluted compound (4×) or vehicle control in assay buffer. Nonspecific binding was determined by […] NECA. Reaction was carried out at room temperature for 2 hours before filtering through 96-well GF/C filter plate pre-soaked in 50 mM Tris·HCl, pH7.4 containing 0.3% polyethylenimine. Plates were then washed 5 times with cold 50 mM Tris·HCl, pH7.4, dried and sealed at the bottom. Microscintillation fluid 30 μL was added to each well and the top sealed. Plates were counted on Packard Topcount for [^3H]. Data was analyzed in Microsoft Excel and GraphPad Prism programs. (Varani, K.; Gessi, S.; Dalpiaz, A.; Borea, P. A. British Journal of Pharmacology, 1996, 117, 1693)

[2] = molecular target: T2, human adenosine A1 receptor (Homo sapiens, UniProt P30542); experiment: Adenosine A1 Receptor Functional Assay (A1GAL2); assay type: cell-based; settings: CHO-K1 cells, cAMP inducible beta-galactosidase reporter, 4nM r-PIA/1 uM Forskolin agonist challenge
T2 construct: expressed in transfected cells; host or cells: CHO-K1
T2 sequence (P30542 1-326): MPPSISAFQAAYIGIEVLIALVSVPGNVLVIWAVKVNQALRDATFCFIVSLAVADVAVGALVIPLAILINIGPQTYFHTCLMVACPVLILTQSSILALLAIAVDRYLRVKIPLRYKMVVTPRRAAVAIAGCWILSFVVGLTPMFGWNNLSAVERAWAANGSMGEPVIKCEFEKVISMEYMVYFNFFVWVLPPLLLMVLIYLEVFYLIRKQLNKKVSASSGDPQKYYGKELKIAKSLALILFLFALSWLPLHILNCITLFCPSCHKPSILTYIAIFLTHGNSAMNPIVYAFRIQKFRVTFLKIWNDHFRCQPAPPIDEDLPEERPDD
Method: (§1) To initiate the functional assay, cryopreserved CHO-K1 cells overexpressing the human adenosine A1 receptor and containing a cAMP inducible beta-galactosidase reporter gene were thawed, centrifuged, DMSO containing media removed, and then seeded with fresh culture media into clear 384-well tissue culture treated plates (BD #353961) at a concentration of 10K cells/well. Prior to assay, these plates were cultured for two days at 37° C., 5% CO2, 90% Rh. On the day of the functional assay, culture media was removed and replaced with 45 uL assay medium (Hams/F-12 Modified (Mediatech #10-080CV) supplemented w/0.1% BSA). Test compounds were diluted and 11 point curves created at a 1000× concentration in 100% DMSO. Immediately after addition of assay media to the cell plates, 50 nL of the appropriate test compound antagonist or agonist control curves were added to cell plates using a Cartesian Hummingbird. Compound curves were allowed to incubate at room temperature on cell plates for approximately 15 minutes before addition of a 4nM r-PIA (Sigma P4532)/1 uM Forskolin (Sigma F3917) agonist challenge (5 uL volume). A control curve of r-PIA in 1 uM Forskolin, a DMSO/Media control, and a single dose of Forskolin were also included on each plate. After additions, cell plates were allowed to incubate at 37° C., 5% CO2, 90% Rh for 5.5-6 hours. After incubation, media was removed, and cell plates were washed 1×50 uL with DPBS w/o Ca & Mg (Mediatech 21-031-CV). Into dry wells, 20 uL of 1× Reporter Lysis Buffer (Promega E3971 (diluted in dH2O from 5× stock)) was added to each well and plates frozen at −20° C. overnight. For β-galactosidase enzyme calorimetric assay, plates were thawed out at room temperature and 20 μL 2× assay buffer (Promega) was added to each well. Color was allowed to develop at 37° C., 5% CO2, 90% Rh for 1-1.5 h or until reasonable signal appeared. The calorimetric reaction was stopped with the addition of 60 μL/well 1M sodium carbonate. Plates were counted at 405 nm on a SpectraMax Microplate Reader (Molecular Devices). Data was analyzed in Microsoft Excel and IC/EC50 curves were fit using a standardized macro.

[3] = molecular target: T3, human adenosine A2a receptor (Homo sapiens, UniProt P29274); experiment: Adenosine A2a Receptor Functional Assay (A2AGAL2); assay type: cell-based; settings: CHO-K1 cells, cAMP inducible beta-galactosidase reporter, 15 nM NECA agonist challenge
T3 construct: expressed in transfected cells; host or cells: CHO-K1
T3 sequence (P29274 whole entry): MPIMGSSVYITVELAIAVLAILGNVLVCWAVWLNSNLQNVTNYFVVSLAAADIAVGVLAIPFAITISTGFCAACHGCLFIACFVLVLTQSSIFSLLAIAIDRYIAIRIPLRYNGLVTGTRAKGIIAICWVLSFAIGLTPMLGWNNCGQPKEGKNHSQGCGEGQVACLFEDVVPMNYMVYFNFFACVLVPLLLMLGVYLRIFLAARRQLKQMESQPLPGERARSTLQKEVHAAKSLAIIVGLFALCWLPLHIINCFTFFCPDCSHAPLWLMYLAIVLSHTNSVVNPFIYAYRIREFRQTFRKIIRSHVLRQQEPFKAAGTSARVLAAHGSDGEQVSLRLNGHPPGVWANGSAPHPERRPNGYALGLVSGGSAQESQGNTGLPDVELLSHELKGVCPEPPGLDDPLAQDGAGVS
Method: as §1, with “A2a” for “A1”, “15 nM NECA” for “4nM r-PIA”, “E2387)” for “P4532)/1 uM Forskolin (Sigma F3917)”, “NECA,” for “r-PIA in 1 uM Forskolin,”, “Forskolin (Sigma F3917)” for “Forskolin”

T1 sequence (P29274 whole entry): as above

Compound | Ki [1] | Ki [2] | Ki [3]
N#Cc1cccc(-c2nc(N)c3cc(C(=O)N4CCOCC4)sc3n2)c1 [Example 2, 3-[4-Amino-6-(morpholine-4-carbonyl)-thieno[2,3-d]pyrimidin-2-yl]-benzonitrile] | 22 nM | 900 nM | 37.9 nM
Cc1csc(-c2nc(N)c3cc(C(=O)N4CCN(Cc5ccccn5)CC4)sc3n2)n1 [Example 28, [4-Amino-2-(4-methyl-thiazol-2-yl)-thieno[2,3-d]pyrimidin-6-yl]-(4-pyridin-2-ylmethyl-piperazin-1-yl)-methanone] | – | > 1040 nM | 160 nM
Nc1nc(-c2ccc(C3CC3)o2)nc2sc(C(=O)N3CCOCC3)cc12 [Example 29, [4-Amino-2-(5-cyclopropyl-furan-2-yl)-thieno[2,3-d]pyrimidin-6-yl]-morpholin-4-yl-methanone] | – | > 1070 nM | 236 nM
CC(C)(C)N1CCN(C(=O)c2cc3c(N)nc(-c4ccc(C5CC5)o4)nc3s2)CC1 [Example 32, [4-Amino-2-(5-cyclopropyl-furan-2-yl)-thieno[2,3-d]pyrimidin-6-yl]-(4-tert-butyl-piperazin-1-yl)-methanone] | – | > 1040 nM | 1240 nM
Cc1csc(-c2nc(N)c3cc(C(=O)N4CCN(c5nccs5)CC4)sc3n2)n1 [Example 33, [4-Amino-2-(4-methyl-thiazol-2-yl)-thieno[2,3-d]pyrimidin-6-yl]-(4-thiazol-2-yl-piperazin-1-yl)-methanone] | – | 978 nM | 81.9 nM

The next compounds have a lower Ki [2] than those just listed; values first:

Ki [1] | Ki [2] | Ki [3] | Compound
45.5 nM | 851 nM | 24.9 nM | Cc1csc(-c2nc(N)c3cc(C(=O)N4CCOCC4)sc3n2)n1 [Example 3, [4-Amino-2-(4-methyl-thiazol-2-yl)-thieno[2,3-d]pyrimidin-6-yl]-morpholin-4-yl-methanone]
– | 522 nM | 236 nM | CC(C)c1ccc(-c2nc(N)c3cc(C(=O)N4CCOCC4)sc3n2)o1 [Example 30, [4-Amino-2-(5-isopropyl-furan-2-yl)-thieno[2,3-d]pyrimidin-6-yl]-morpholin-4-yl-methanone]
12 nM | 167 nM | 11 nM | Cc1ccc(-c2nc(N)c3cc(C(=O)N4CCOCC4)sc3n2)o1 [Example 5, [4-Amino-2-(5-methyl-furan-2-yl)-thieno[2,3-d]pyrimidin-6-yl]-morpholin-4-yl-methanone]

Reference: patent US20100093714A1, “AMIDES OF THIENO[2,3-d]PYRIMIDINE AND THEIR USE AS ADENOSINE A2a RECEPTOR ANTAGONISTS” (priority 2008, published 2010)
